PubChem BioAssay AID1919003 (Molecular Pharmacology Branch, DTP, NCI, 2023)

Tested on: 786-0 complex spheroids with HUVEC/MSC, growth % test/control
Experiment: Anticancer human tumor 786-0 cell line growth inhibition [AhR];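 further: compound exposure lasted seven days before the read-out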
Conditions: for IC50: curve of first compound; for viability, T/C: stronger effect = lower value
Method in brief: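 Spheroids combined tumor cells with HUVEC endothelial cells and human MSCs as stroma. AhR antagonists were paired with standard or investigational drugs, each dosed in half-log steps down from near clinical Cmax, or from 10 microM where Cmax was unknown.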

[1] = second compound 0.1 µM, first compound 0.0316 µM
[2] = second compound 0.1 µM, first compound 0.1 µM
[3] = second compound 0.1 µM, first compound 0.316 µM
[4] = second compound 0.1 µM, first compound 1 µM
[5] = second compound 0.1 µM, first compound 3.16 µM
[6] = second compound 0.1 µM, first compound 10 µM
[7] = second compound 0.316 µM, first compound 0.0316 µM
[8] = second compound 0.316 µM, first compound 0.1 µM
[9] = second compound 0.316 µM, first compound 0.316 µM
[10] = second compound 0.316 µM, first compound 1 µM
[11] = second compound 0.316 µM, first compound 3.16 µM
[12] = second compound 0.316 µM, first compound 10 µM
[13] = second compound 1 µM, first compound 0.0316 µM
[14] = second compound 1 µM, first compound 0.1 µM
[15] = second compound 1 µM, first compound 0.316 µM
[16] = second compound 1 µM, first compound 1 µM
[17] = second compound 1 µM, first compound 3.16 µM
[18] = second compound 1 µM, first compound 10 µM
[19] = second compound 3.16 µM, first compound 0.0316 µM
[20] = second compound 3.16 µM, first compound 0.1 µM
[21] = second compound 3.16 µM, first compound 0.316 µM
[22] = second compound 3.16 µM, first compound 1 µM
[23] = second compound 3.16 µM, first compound 3.16 µM
[24] = second compound 3.16 µM, first compound 10 µM
[25] = second compound 10 µM, first compound 0.0316 µM
[26] = second compound 10 µM, first compound 0.1 µM
[27] = second compound 10 µM, first compound 0.316 µM
[28] = second compound 10 µM, first compound 1 µM
[29] = second compound 10 µM, first compound 3.16 µM
[30] = second compound 10 µM, first compound 10 µM
[31] = second compound 0.1 µM, first compound 0.00949 µM
[32] = second compound 0.1 µM, first compound 0.03 µM
[33] = second compound 0.1 µM, first compound 0.0949 µM
[34] = second compound 0.1 µM, first compound 0.3 µM
[35] = second compound 0.1 µM, first compound 0.949 µM
[36] = second compound 0.1 µM, first compound 3 µM
[37] = second compound 0.316 µM, first compound 0.00949 µM
[38] = second compound 0.316 µM, first compound 0.03 µM
[39] = second compound 0.316 µM, first compound 0.0949 µM
[40] = second compound 0.316 µM, first compound 0.3 µM
[41] = second compound 0.316 µM, first compound 0.949 µM
[42] = second compound 0.316 µM, first compound 3 µM
[43] = second compound 1 µM, first compound 0.00949 µM
[44] = second compound 1 µM, first compound 0.03 µM
[45] = second compound 1 µM, first compound 0.0949 µM
[46] = second compound 1 µM, first compound 0.3 µM
[47] = second compound 1 µM, first compound 0.949 µM
[48] = second compound 1 µM, first compound 3 µM
[49] = second compound 3.16 µM, first compound 0.00949 µM
[50] = second compound 3.16 µM, first compound 0.03 µM
[51] = second compound 3.16 µM, first compound 0.0949 µM
[52] = second compound 3.16 µM, first compound 0.3 µM
[53] = second compound 3.16 µM, first compound 0.949 µM
[54] = second compound 3.16 µM, first compound 3 µM
[55] = second compound 10 µM, first compound 0.00949 µM
[56] = second compound 10 µM, first compound 0.03 µM
[57] = second compound 10 µM, first compound 0.0949 µM
[58] = second compound 10 µM, first compound 0.3 µM
[59] = second compound 10 µM, first compound 0.949 µM
[60] = second compound 10 µM, first compound 3 µM

`CC1(C)CCC(CN2CCN(c3ccc(C(=O)NS(=O)(=O)c4ccc(NCC5CCOCC5)c([N+](=O)[O-])c4)c(Oc4cnc5[nH]ccc5c4)c3)CC2)=C(c2ccc(Cl)cc2)C1` + CC(CO)NC(=O)c1cc(-c2ccc(Cl)cc2)nn(-c2cnn(C)c2)c1=O gave an IC50 (second compound 0.1 µM) of over 10 µM, an IC50 (second compound 0.316 µM) of over 10 µM and an IC50 (second compound 1 µM) of over 10 µM. For the same molecule, the IC50 (second compound 3.16 µM) was over 10 µM, the IC50 (second compound 10 µM) was over 10 µM and the viability, T/C [1] was 109%. The viability, T/C [2] was 101%, the viability, T/C [3] was 106% and the viability, T/C [4] was 99.9%. It also gave a viability, T/C [5] of 90.7%, a viability, T/C [6] of 77.7% and a viability, T/C [7] of 105%. The viability, T/C [8] was 115%, the viability, T/C [9] was 101% and the viability, T/C [10] was 98.4%. The viability, T/C [11] was 91.3%, the viability, T/C [12] was 81.3% and the viability, T/C [13] was 105%. The viability, T/C [14] was 103%, the viability, T/C [15] was 106% and the viability, T/C [16] was 97.9%. For the same molecule, the viability, T/C [17] was 104%, the viability, T/C [18] was 80.8% and the viability, T/C [19] was 116%. The viability, T/C [20] was 111%, the viability, T/C [21] was 104% and the viability, T/C [22] was 96.4%. For the same molecule, the viability, T/C [23] was 82.9%, the viability, T/C [24] was 82.5% and the viability, T/C [25] was 114%. For the same molecule, the viability, T/C [26] was 135%, the viability, T/C [27] was 109% and the viability, T/C [28] was 122%. It also gave a viability, T/C [29] of 98.4% and a viability, T/C [30] of 86.4%.
Work on `CC1COCCN1c1cc(C2(S(C)(=N)=O)CC2)nc(-c2ccnc3[nH]ccc23)n1` (stereo not given) + CC(CO)NC(=O)c1cc(-c2ccc(Cl)cc2)nn(-c2cnn(C)c2)c1=O yielded an IC50 (second compound 0.1 µM) of 3.02 µM, an IC50 (second compound 0.316 µM) of 2.78 µM and an IC50 (second compound 1 µM) of 2.64 µM. The IC50 (second compound 3.16 µM) was 2.57 µM, the IC50 (second compound 10 µM) was 2.09 µM and the viability, T/C [1] was 99.7%. For the same molecule, the viability, T/C [2] was 99.5%, the viability, T/C [3] was 98.1% and the viability, T/C [4] was 99.4%. The viability, T/C [5] was 48%, the viability, T/C [6] was 15.7% and the viability, T/C [7] was 101%. It also gave a viability, T/C [8] of 110%, a viability, T/C [9] of 96.2% and a viability, T/C [10] of 101%. The viability, T/C [11] was 43.6%, the viability, T/C [12] was 17.3% and the viability, T/C [13] was 108%. It also gave a viability, T/C [14] of 102%, a viability, T/C [15] of 113% and a viability, T/C [16] of 97.4%. For the same molecule, the viability, T/C [17] was 41.3%, the viability, T/C [18] was 13.7% and the viability, T/C [19] was 108%. It also gave a viability, T/C [20] of 101%, a viability, T/C [21] of 118% and a viability, T/C [22] of 107%. For the same molecule, the viability, T/C [23] was 37.5%, the viability, T/C [24] was 10.8% and the viability, T/C [25] was 110%. The viability, T/C [26] was 118%, the viability, T/C [27] was 115% and the viability, T/C [28] was 93.6%. For the same molecule, the viability, T/C [29] was 25.5% and the viability, T/C [30] was 8.6%.
In the case of `CCN(c1cc(-c2ccc(CN3CCOCC3)cc2)cc(C(=O)NCc2c(C)cc(C)[nH]c2=O)c1C)C1CCOCC1` + CC(CO)NC(=O)c1cc(-c2ccc(Cl)cc2)nn(-c2cnn(C)c2)c1=O, the IC50 (second compound 0.1 µM) is reported as over 3 µM, the IC50 (second compound 0.316 µM) is reported as over 3 µM and the IC50 (second compound 1 µM) is reported as over 3 µM. For the same molecule, the IC50 (second compound 3.16 µM) was over 3 µM, the IC50 (second compound 10 µM) was over 3 µM and the viability, T/C [31] was 90.2%. For the same molecule, the viability, T/C [32] was 101%, the viability, T/C [33] was 93.5% and the viability, T/C [34] was 106%. For the same molecule, the viability, T/C [35] was 98.7%, the viability, T/C [36] was 102% and the viability, T/C [37] was 108%. It also gave a viability, T/C [38] of 107%, a viability, T/C [39] of 103% and a viability, T/C [40] of 101%. It also gave a viability, T/C [41] of 103%, a viability, T/C [42] of 98.4% and a viability, T/C [43] of 98.8%. It also gave a viability, T/C [44] of 102%, a viability, T/C [45] of 101% and a viability, T/C [46] of 109%. The viability, T/C [47] was 110%, the viability, T/C [48] was 96.6% and the viability, T/C [49] was 101%. It also gave a viability, T/C [50] of 97.5%, a viability, T/C [51] of 106% and a viability, T/C [52] of 102%. It also gave a viability, T/C [53] of 112%, a viability, T/C [54] of 98.5% and a viability, T/C [55] of 105%. For the same molecule, the viability, T/C [56] was 110%, the viability, T/C [57] was 102% and the viability, T/C [58] was 116%. For the same molecule, the viability, T/C [59] was 116% and the viability, T/C [60] was 106%.
Work on `Nc1ncn(C2CC(O)C(CO)S2)c(=O)n1` (stereo not given) + CC(CO)NC(=O)c1cc(-c2ccc(Cl)cc2)nn(-c2cnn(C)c2)c1=O yielded an IC50 (second compound 0.1 µM) of over 0.3 µM, an IC50 (second compound 0.316 µM) of over 0.3 µM and an IC50 (second compound 1 µM) of over 0.3 µM. For the same molecule, the IC50 (second compound 3.16 µM) was over 0.3 µM, the IC50 (second compound 10 µM) was over 0.3 µM and the viability, T/C (second compound 0.1 µM, first compound 0.000949 µM) was 102%. The viability, T/C (second compound 0.1 µM, first compound 0.003 µM) was 97.3%, the viability, T/C [31] was 99.8% and the viability, T/C [32] was 102%. For the same molecule, the viability, T/C [33] was 92.3%, the viability, T/C [34] was 67.2% and the viability, T/C (second compound 0.316 µM, first compound 0.000949 µM) was 101%. For the same molecule, the viability, T/C (second compound 0.316 µM, first compound 0.003 µM) was 109%, the viability, T/C [37] was 109% and the viability, T/C [38] was 107%. For the same molecule, the viability, T/C [39] was 94.8%, the viability, T/C [40] was 64.7% and the viability, T/C (second compound 1 µM, first compound 0.000949 µM) was 104%. For the same molecule, the viability, T/C (second compound 1 µM, first compound 0.003 µM) was 115%, the viability, T/C [43] was 111% and the viability, T/C [44] was 102%. It also gave a viability, T/C [45] of 97.9%, a viability, T/C [46] of 63.1% and a viability, T/C (second compound 3.16 µM, first compound 0.000949 µM) of 122%. It also gave a viability, T/C (second compound 3.16 µM, first compound 0.003 µM) of 108%, a viability, T/C [49] of 115% and a viability, T/C [50] of 108%. The viability, T/C [51] was 92.6%, the viability, T/C [52] was 66.4% and the viability, T/C (second compound 10 µM, first compound 0.000949 µM) was 118%. It also gave a viability, T/C (second compound 10 µM, first compound 0.003 µM) of 116%, a viability, T/C [55] of 117% and a viability, T/C [56] of 123%. For the same molecule, the viability, T/C [57] was 119% and the viability, T/C [58] was 68.1%.
With `O=C(C=Cn1cnc(-c2cc(C(F)(F)F)cc(C(F)(F)F)c2)n1)NNc1cnccn1` + CC(CO)NC(=O)c1cc(-c2ccc(Cl)cc2)nn(-c2cnn(C)c2)c1=O the IC50 (second compound 0.1 µM) was 0.278 µM, the IC50 (second compound 0.316 µM) was 0.251 µM and the IC50 (second compound 1 µM) was 0.242 µM. The IC50 (second compound 3.16 µM) was 0.246 µM, the IC50 (second compound 10 µM) was 0.278 µM and the viability, T/C [31] was 108%. The viability, T/C [32] was 110%, the viability, T/C [33] was 107% and the viability, T/C [34] was 45.5%. The viability, T/C [35] was 25.7%, the viability, T/C [36] was 10.5% and the viability, T/C [37] was 111%. The viability, T/C [38] was 113%, the viability, T/C [39] was 112% and the viability, T/C [40] was 38.7%. For the same molecule, the viability, T/C [41] was 28.2%, the viability, T/C [42] was 11% and the viability, T/C [43] was 105%. The viability, T/C [44] was 115%, the viability, T/C [45] was 113% and the viability, T/C [46] was 36%. The viability, T/C [47] was 24.5%, the viability, T/C [48] was 9.93% and the viability, T/C [49] was 110%. It also gave a viability, T/C [50] of 116%, a viability, T/C [51] of 106% and a viability, T/C [52] of 37.9%. The viability, T/C [53] was 22.9%, the viability, T/C [54] was 9.29% and the viability, T/C [55] was 119%. For the same molecule, the viability, T/C [56] was 122%, the viability, T/C [57] was 107% and the viability, T/C [58] was 44.8%. The viability, T/C [59] was 23.6% and the viability, T/C [60] was 10.6%.
